No end group written: not given here.
Tests used:
[1] = antioxidative activity by linoleic acid-β-carotene degradation method; format: biochemical
Procedure: The antioxidative activity of the peptide fractionated in Example 1 was measured utilizing the β-carotene degradation effect of an oxide of linoleic acid. Specifically, a 300 ml Erlenmeyer flask was charged with 0.5 ml of a β-carotene solution (1 mg/ml chloroform), 0.2 ml of a linoleic acid solution (100 mg/ml chloroform), and 1.0 ml of a Tween 40 solution (200 mg/ml chloroform). After completely removing chloroform using nitrogen gas, 100 ml of distilled water was added to dissolve the components. 9.0 ml of a 0.2 M phosphate buffer (pH: 7.0) was then added to the solution to prepare a linoleic acid-β-carotene solution. 0.18 ml of the linoleic acid-β-carotene solution was added to a […] microwell plate to which 0.02 ml of the peptide fraction was provided. The absorbance S0 at 490 nm was measured immediately after the addition. When preparing the linoleic acid-β-carotene solution, the amount of the β-carotene solution was appropriately adjusted so that the absorbance S0 was about 1.2 (1.1 to 1.3). The microwell plate was placed in a thermostat bath at 50° C. immediately after measuring the absorbance S0, and the peptide fraction was incubated for 30 minutes. The absorbance S30 was measured immediately after incubation. A decrease (ΔS=S0−S30) in absorbance at 490 nm over 30 minutes was then calculated. 70% ethanol was used as a blank instead of the sample and subjected to the above operation. Specifically, the absorbance B0 immediately after adding the linoleic acid-β-carotene solution and the absorbance B30 after being kept at 50° C. for 30 minutes were measured, and a decrease (ΔB=B0−B30) in absorbance at 490 nm over 30 minutes was calculated. The antioxidative activity (antioxidation rate (%)) was determined by substituting the resulting values in the following expression. Antioxidation rate (%)=[ΔB−ΔS]/(ΔB)×100
As a positive control, carnosine (β-Ala-L-His; manufactured by Peptide Institute, Inc.) (muscle-derived antioxidative peptide) prepared to a concentration of 0.01 μg/ml, 0.1 μg/ml, or 1 μg/ml was used.
The antioxidative activity of the peptide obtained in Example 2 was measured in the same manner as in Test Example 1. As a positive control, carnosine (β-Ala-L-His; manufactured by Peptide Institute, Inc.) (muscle-derived antioxidative peptide) and catechin (manufactured by Wako Pure Chemical Industries, Ltd.) (1 μm, 10 μm, or 100 μm) were used. Table 2 and FIG. 3 show the evaluation results for the antioxidative activity of the synthetic peptide.
The antioxidative activities of the two peptides (i.e., tryptic digests) obtained in Examples 3 and the tryptic digest before fractionation were measured using a carotene degradation method in the same manner as in Test Example 2. The peptide concentration was determined by dissolving each peptide in 500 μl of pure water and measuring the peptide concentration using a Micro BCA Protein assay kit (manufactured by Pierce). As a positive control, carnosine (β-Ala-L-His; manufactured by Peptide Institute, Inc.) and catechin (manufactured by Wako Pure Chemical Industries, Ltd.) were used in the same manner as in Test Example 2. A diluted solution (1 ng/ml, 10 ng/ml, and 100 ng/ml) was prepared for each fragment, and the antioxidative activity was evaluated using the β-carotene degradation method.

[2] = tested on: rat primary-cultured visceral fat cells (VAC01); assay: peptide adipocyte administration experiment; format: cell-based
Procedure: Experiments were conducted in which the peptide isolated from the cheese in Example 1 was administered to primary-cultured visceral fat cells.
The experiments were conducted using rat primary-cultured visceral fat cells (VAC01, manufactured by Cell Garage Co., Ltd.) and a visceral fat cytodifferentiation medium (manufactured by Cell Garage Co., Ltd.). Cells preserved in a frozen state in accordance with the protocol provided by Cell Garage Co., Ltd. were melted and disseminated in a 24-well plate (zeroth day). A culture medium (peptide concentration: 100 μM, 50 μM, 10 μM, or 0 μM) in which the synthetic peptide was dissolved was added to the 24-well plate on the second day, fifth day, and seventh day, and the synthetic peptide was cultured. The culture supernatant liquid was collected on the fifth day, seventh day, and eighth day to measure the adiponectin level. The cells were collected on the eighth day. The enzyme activity of glycerol-3-phosphate dehydrogenase (GPDH) in the cells, the DNA content of each well, and the intracellular fat accumulation level were measured. GPDH is an enzyme that functions when triglyceride is synthesized from glucose to produce mature fat cells. In this example, preadipocytes were differentiated, and the effect of administration of the peptide according to the present invention was observed.
The DNA content was determined using a DNA quantization kit (manufactured by Cell Garage Co., Ltd.).
The glycerol-3-phosphate dehydrogenase (GPDH) enzyme activity in the cells was measured using a GPDH activity measurement kit (manufactured by Cell Garage Co., Ltd.) in accordance with the protocol provided by Cell Garage Co., Ltd. The measurement results were standardized by the content of DNA extracted from each well.
The adiponectin level in the culture supernatant liquid was measured using an adiponectin ELISA kit (manufactured by Otsuka Pharmaceutical Co., Ltd.). The measurement results were standardized by the content of DNA extracted from each well.
The intracellular fat accumulation was determined by fat staining with oil red O and absorbance measurement using a fat staining kit (manufactured by Cell Garage Co., Ltd.).

[3] = sample concentration 0.01 μg/ml, Test Example 1
[4] = sample concentration 0.1 μg/ml, Test Example 1
[5] = sample concentration 1 μg/ml, Test Example 1
[6] = sample concentration 1 μg/ml, Test Example 2
[7] = sample concentration 10 μg/ml, Test Example 2
[8] = sample concentration 100 μg/ml, Test Example 2
[9] = Test Example 3, tryptic digest peptides, 1, 10, 100 ng/ml, FIG. 5

Row | Compound | Antioxidative activity (%) [1, 3] | Antioxidative activity (%) [1, 4] | Antioxidative activity (%) [1, 5] | Antioxidative activity (%) [1, 6] | Antioxidative activity (%) [1, 7] | Antioxidative activity (%) [1, 8] | antioxidative activity (in words) [1, 9] | further results
1 | NCCC(=O)N[C@@H](Cc1cnc[nH]1)C(=O)O [Carnosine, β-Ala-L-His, reference compound] | 32.9% | 57.8% | 78.3% | 7.07% | 21.2% | 48.41% | – | –
2 | HPIKHQGLPQ | 13.0% | 41.0% | 64.6% | 32.86% | 61.13% | 63.6% | – | antioxidative activity (in words) ([1]; Test Example 1, peptide purified from Gouda cheese): had antioxidative activity (radical scavenger activity); antioxidative activity (in words) ([1]; Test Example 2, synthetic peptide, FIG. 3): strong antioxidative activity; production of adiponectin (per unit DNA content) vs cells without peptide ([2]; culture supernatant, seventh day, 10, 50, 100 μM, FIG. 6): significantly more adiponectin; cell DNA content of each well vs group without peptide ([2]; eighth day, Student t-test): a significant difference in cell DNA content was not observed; fat accumulation (oil red O staining) vs cells without peptide ([2]; eighth day, Student t-test, FIG. 7): a significant difference in fat accumulation was not observed; GPDH activity (per unit DNA content) vs group without peptide ([2]; peptide 100 μM, eighth day): A significant difference was not observed; fat accumulation (oil red O staining) ([2]; peptide 100 μM, eighth day): decreased to only a small extent; GPDH activity (per unit DNA content) vs group without peptide ([2]; peptide 10 or 50 μM, eighth day): significantly higher
3 | HQGLPQ | – | – | – | – | – | – | strong antioxidative activity | –
4 | His-Pro-Ile-Lys (HPIK; Bovine) | – | – | – | – | – | – | strong antioxidative activity | –
5 | catechin [reference compound] | – | – | – | 52.65% | 84.45% | 97.17% | – | –
